According to patent publication US12383545B1, “Treatment of migraine” (priority 2018, dated 2025):

Tested on: patients with migraine (4 to 14 migraine/probable migraine headache days)
Experiment: Example 5: randomized double-blind placebo-controlled 12-week dose-regimen study (QD and BID), migraine/probable migraine (MPM) headache days efficacy
Format: in vivo, human
Conditions: mITT population
Description: In a multicenter, randomized, double-blind, placebo-controlled, parallel-group study designed to evaluate the efficacy, safety, and tolerability of multiple doses and doses regimens of atogepant for the prevention of migraine. The patients were randomized (2:1:2:1:2:1) to 1 of 6 treatment groups: placebo, atogepant 10 mg QD, atogepant 30 mg QD, atogepant 30 mg BID, atogepant 60 mg QD, and atogepant 60 mg BID.
This study consisted of a 4-week screening and baseline period and a 12-week double-blind treatment period, which was followed by a 4-week safety follow-up period. Total study duration is 20-weeks.
To be randomized, eligible patients had to be 18 to 75 years of age (inclusive), have a history of migraine with or without aura for at least 1 year consistent with a diagnosis according to the International Classification of Headache Disorders criteria, 3rd edition, beta version, have experienced 4 to 14 migraine/probable migraine headache days and <15 headache days in the 28-day baseline period. Patients who had clinically significant hematologic, endocrine, cardiovascular, cerebrovascular, pulmonary, renal, hepatic, gastrointestinal, or neurologic disease were excluded from the study.
A total of 834 patients were randomized to double-blind treatment (ITT population), and 825 patients took at least 1 dose of double-blind IP (safety population). […] The primary efficacy variable was the change from baseline in mean monthly migraine/probable migraine headache days across the 12-week treatment period. The secondary efficacy variables were the change from baseline in mean monthly headache days across the 12-week treatment period, proportion of patients with at least a 50% reduction in mean monthly migraine/probable migraine headache days across the 12-week treatment period, and the change from baseline in mean monthly acute medication use days across the 12-week treatment period.

[1] = Weeks 1-4, Atogepant 60 mg BID (N = 87)
[2] = Weeks 1-4, Atogepant 60 mg QD (N = 177)
[3] = Weeks 5-8, Atogepant 10 mg QD (N = 92)
[4] = Weeks 5-8, Atogepant 30 mg BID (N = 79)
[5] = Weeks 5-8, Atogepant 30 mg QD (N = 182)
[6] = Weeks 5-8, Atogepant 60 mg BID (N = 87)
[7] = Weeks 5-8, Atogepant 60 mg QD (N = 177)
[8] = Weeks 9-12, Atogepant 10 mg QD (N = 92)
[9] = Weeks 9-12, Atogepant 30 mg BID (N = 79)
[10] = Weeks 9-12, Atogepant 30 mg QD (N = 182)
[11] = Weeks 9-12, Atogepant 60 mg BID (N = 87)
[12] = Weeks 9-12, Atogepant 60 mg QD (N = 177)

For `C[C@@H]1[C@H](c2c(F)ccc(F)c2F)C[C@H](NC(=O)c2cnc3c(c2)C[C@@]2(C3)C(=O)Nc3ncccc32)C(=O)N1CC(F)(F)F` [atogepant], the “Non-responders (at least 100% reduction in mean monthly MPM headache days not met), (%)” value [1] was “(79.3) %”, the “Non-responders (at least 100% reduction in mean monthly MPM headache days not met), n” value [1] was 69 and the “Odds ratio vs. Placebo, at least 100% reduction in mean monthly MPM headache days” value [1] was 7.43. The “Responders (at least 100% reduction in mean monthly MPM headache days), (%)” value [1] was “(20.7) %”, the “Responders (at least 100% reduction in mean monthly MPM headache days), n” value [1] was 18 and the “Non-responders (at least 100% reduction in mean monthly MPM headache days not met), (%)” value [2] was “(85.2) %”. The “Non-responders (at least 100% reduction in mean monthly MPM headache days not met), n” value [2] was 150, the “Odds ratio vs. Placebo, at least 100% reduction in mean monthly MPM headache days” value [2] was 4.94 and the “Responders (at least 100% reduction in mean monthly MPM headache days), (%)” value [2] was “(14.8) %”. For the same molecule, the “Responders (at least 100% reduction in mean monthly MPM headache days), n” value [2] was 26, the “Non-responders (at least 100% reduction in mean monthly MPM headache days not met), (%)” value [3] was “(79.1) %” and the “Non-responders (at least 100% reduction in mean monthly MPM headache days not met), n” value [3] was 68. For the same molecule, the “Odds ratio vs. Placebo, at least 100% reduction in mean monthly MPM headache days” value [3] was 2.34, the “Responders (at least 100% reduction in mean monthly MPM headache days), (%)” value [3] was “(20.9) %” and the “Responders (at least 100% reduction in mean monthly MPM headache days), n” value [3] was 18. The “Non-responders (at least 100% reduction in mean monthly MPM headache days not met), (%)” value [4] was “(80.3) %”, the “Non-responders (at least 100% reduction in mean monthly MPM headache days not met), n” value [4] was 57 and the “Odds ratio vs. Placebo, at least 100% reduction in mean monthly MPM headache days” value [4] was 2.26. For the same molecule, the “Responders (at least 100% reduction in mean monthly MPM headache days), (%)” value [4] was “(19.7) %”, the “Responders (at least 100% reduction in mean monthly MPM headache days), n” value [4] was 14 and the “Non-responders (at least 100% reduction in mean monthly MPM headache days not met), (%)” value [5] was “(73.3) %”. The “Non-responders (at least 100% reduction in mean monthly MPM headache days not met), n” value [5] was 121, the “Odds ratio vs. Placebo, at least 100% reduction in mean monthly MPM headache days” value [5] was 3.26 and the “Responders (at least 100% reduction in mean monthly MPM headache days), (%)” value [5] was “(26.7) %”. For the same molecule, the “Responders (at least 100% reduction in mean monthly MPM headache days), n” value [5] was 44, the “Non-responders (at least 100% reduction in mean monthly MPM headache days not met), (%)” value [6] was “(73.8) %” and the “Non-responders (at least 100% reduction in mean monthly MPM headache days not met), n” value [6] was 59. For the same molecule, the “Odds ratio vs. Placebo, at least 100% reduction in mean monthly MPM headache days” value [6] was 3.25, the “Responders (at least 100% reduction in mean monthly MPM headache days), (%)” value [6] was “(26.3) %” and the “Responders (at least 100% reduction in mean monthly MPM headache days), n” value [6] was 21. For the same molecule, the “Non-responders (at least 100% reduction in mean monthly MPM headache days not met), (%)” value [7] was “(79.9) %”, the “Non-responders (at least 100% reduction in mean monthly MPM headache days not met), n” value [7] was 135 and the “Odds ratio vs. Placebo, at least 100% reduction in mean monthly MPM headache days” value [7] was 2.31. For the same molecule, the “Responders (at least 100% reduction in mean monthly MPM headache days), (%)” value [7] was “(20.1) %”, the “Responders (at least 100% reduction in mean monthly MPM headache days), n” value [7] was 34 and the “Non-responders (at least 100% reduction in mean monthly MPM headache days not met), (%)” value [8] was “(79.8) %”. The “Non-responders (at least 100% reduction in mean monthly MPM headache days not met), n” value [8] was 67, the “Odds ratio vs. Placebo, at least 100% reduction in mean monthly MPM headache days” value [8] was 1.43 and the “Responders (at least 100% reduction in mean monthly MPM headache days), (%)” value [8] was “(20.02) %”. The “Responders (at least 100% reduction in mean monthly MPM headache days), n” value [8] was 17, the “Non-responders (at least 100% reduction in mean monthly MPM headache days not met), (%)” value [9] was “(71.0) %” and the “Non-responders (at least 100% reduction in mean monthly MPM headache days not met), n” value [9] was 49. The “Odds ratio vs. Placebo, at least 100% reduction in mean monthly MPM headache days” value [9] was 2.42, the “Responders (at least 100% reduction in mean monthly MPM headache days), (%)” value [9] was “(29.0) %” and the “Responders (at least 100% reduction in mean monthly MPM headache days), n” value [9] was 20. The “Non-responders (at least 100% reduction in mean monthly MPM headache days not met), (%)” value [10] was “(77.0) %”, the “Non-responders (at least 100% reduction in mean monthly MPM headache days not met), n” value [10] was 117 and the “Odds ratio vs. Placebo, at least 100% reduction in mean monthly MPM headache days” value [10] was 1.72. For the same molecule, the “Responders (at least 100% reduction in mean monthly MPM headache days), (%)” value [10] was “(23.0) %”, the “Responders (at least 100% reduction in mean monthly MPM headache days), n” value [10] was 35 and the “Non-responders (at least 100% reduction in mean monthly MPM headache days not met), (%)” value [11] was “(67.6) %”. The “Non-responders (at least 100% reduction in mean monthly MPM headache days not met), n” value [11] was 48, the “Odds ratio vs. Placebo, at least 100% reduction in mean monthly MPM headache days” value [11] was 2.59 and the “Responders (at least 100% reduction in mean monthly MPM headache days), (%)” value [11] was “(32.4) %”. For the same molecule, the “Responders (at least 100% reduction in mean monthly MPM headache days), n” value [11] was 23, the “Non-responders (at least 100% reduction in mean monthly MPM headache days not met), (%)” value [12] was “(73.2) %” and the “Non-responders (at least 100% reduction in mean monthly MPM headache days not met), n” value [12] was 120. The “Odds ratio vs. Placebo, at least 100% reduction in mean monthly MPM headache days” value [12] was 2.07, the “Responders (at least 100% reduction in mean monthly MPM headache days), (%)” value [12] was “(26.8) %” and the “Responders (at least 100% reduction in mean monthly MPM headache days), n” value [12] was 44.
